A short description of the series: Particle-size distribution (PSD) analysis, Malvern Mastersizer 3000. Format: physicochemical. Conditions: certificate of analysis, FIG. 1; after spiral jet-mill micronization. An excerpt:
PARTICLE-SIZE DISTRIBUTION (PSD) ANALYTICAL METHOD: Equipment Malvern Mastersizer 3000 equipped with Hydro MV dispersion unit Dispersant Preparation—1. Fill the dispersion unit with hexane—2. Check that the channel 1 of background signal is less than 80 and no anomalous spikes are present—3. Check the background signal: it has to be stable and complying with the following limits: Channel 1<100, Channel 20<60. Sample Preparation—Randomize the sample by manually tumbling and rolling for 30 seconds, weigh approximately 15 mg of powder in a 100 mL Erlenmeyer flask, add 2 mL of Span 85 (Sorbitane trioleate; 5% w/w water solution). A homogeneous mixture, using the tip of a small stainless steel spatula, has to be obtained. Using a Pasteur pipette add 1 mL of water and homogenize the suspension. Repeat this operation until a volume of 8-10 mL is reached. Sonicate the sample for 5 seconds in an ultrasonic bath (25 kHz). Procedure—1. Once a stable background signal is obtained, proceed with the SOP—2. Add the sample until the obscuration target is reached. Avoid droplets to fall directly into the liquid when adding the sample suspension putting the pipette tip under water—3. Initiate the measurement—4. The particle size distribution values (D10, D50 and D90) are taken directly from the Malvern screen. All three values determined for a sample are average and rounded to obtain the final values.

Structures can show the parent of a compound that is named as a salt.

`CCCN1C[C@H](CSC)C[C@@H]2c3cccc4[nH]cc(c34)C[C@H]21` [micronized pergolide mesylate, (8β)-8-[(methylthio)methyl]-6-propylergoline]: the median particle size was found to be 13.3 μm and the “particle size distribution D90 value” was 39.4 μm.
